“And” between values parts separate entries of the source, which are not always exact repeats. Equal entries are not always repeated. Toxic doses and inconclusive results are not listed. No stated cut-off is given here; in the data, active means T/C of 150% or more; inactive means T/C below 125%.
System: L1210 leukemia ip in BDF1 mice, survival T/C
Test: NCI In Vivo Anticancer Drug Screen. Data for tumor model L1210 Leukemia (intraperitoneal) in B6D2F1 (BDF1) mice
Details: endpoint: mean survival time, higher = longer survival
Procedure, shortened: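 Ratio derived from survival: compound-dosed mice over vehicle-dosed mice, all bearing a transplantable tumor.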

[1] = dose: 25.0 mg/kg/injection, schedule: Q04DX003 (ip), vehicle: saline
[2] = dose: 100.0 mg/kg/injection, schedule: Q04DX003 (ip), vehicle: Klucel (hydroxypropylcellulose) (HPC)
[3] = dose: 200.0 mg/kg/injection, schedule: Q04DX003 (ip), vehicle: Klucel (hydroxypropylcellulose) (HPC)
[4] = dose: 400.0 mg/kg/injection, schedule: Q04DX003 (ip), vehicle: Klucel (hydroxypropylcellulose) (HPC)
[5] = dose: 25.0 mg/kg/injection, schedule: Q01DX009 (ip), vehicle: Klucel (hydroxypropylcellulose) (HPC)
[6] = dose: 50.0 mg/kg/injection, schedule: Q01DX009 (ip), vehicle: Klucel (hydroxypropylcellulose) (HPC)
[7] = dose: 100.0 mg/kg/injection, schedule: Q01DX009 (ip), vehicle: Klucel (hydroxypropylcellulose) (HPC)
[8] = dose: 200.0 mg/kg/injection, schedule: Q01DX009 (ip), vehicle: Klucel (hydroxypropylcellulose) (HPC)
[9] = dose: 400.0 mg/kg/injection, schedule: Q01DX009 (ip), vehicle: Klucel (hydroxypropylcellulose) (HPC)
[10] = dose: 100.0 mg/kg/injection, schedule: Q04DX003 (ip), vehicle: saline with Tween-80
[11] = dose: 100.0 mg/kg/injection, schedule: Q04DX003 (ip), vehicle: saline
[12] = dose: 200.0 mg/kg/injection, schedule: Q04DX003 (ip), vehicle: saline
[13] = dose: 100.0 mg/kg/injection, schedule: Q01DX001 (ip), vehicle: saline
[14] = dose: 75.0 mg/kg/injection, schedule: Q01DX001 (ip), vehicle: saline
[15] = dose: 150.0 mg/kg/injection, schedule: Q01DX001 (ip), vehicle: saline
[16] = dose: 100.0 mg/kg/injection, schedule: Q04DX002 (ip), vehicle: Klucel (hydroxypropylcellulose) (HPC)
[17] = dose: 400.0 mg/kg/injection, schedule: Q04DX003 (ip), vehicle: saline
[18] = dose: 200.0 mg/kg/injection, schedule: Q04DX002 (ip), vehicle: Klucel (hydroxypropylcellulose) (HPC)
[19] = dose: 400.0 mg/kg/injection, schedule: Q04DX002 (ip), vehicle: Klucel (hydroxypropylcellulose) (HPC)
[20] = dose: 100.0 mg/kg/injection, schedule: Q01DX009 (ip), vehicle: saline with Tween-80
[21] = dose: 200.0 mg/kg/injection, schedule: Q01DX009 (ip), vehicle: saline with Tween-80
[22] = dose: 400.0 mg/kg/injection, schedule: Q01DX009 (ip), vehicle: saline with Tween-80

Measured: T/C

Cc1cccc(N2CCNCC2)c1
inactive: dose: 6.25 mg/kg/injection, schedule: Q04DX003 (ip), vehicle: saline 93 % of control | dose: 12.5 mg/kg/injection, schedule: Q04DX003 (ip), vehicle: saline 96 % of control | dose: 25.0 mg/kg/injection, schedule: Q04DX002 (ip), vehicle: saline with Tween-80 101 % of control | [1] 102 % of control | dose: 50.0 mg/kg/injection, schedule: Q04DX002 (ip), vehicle: saline with Tween-80 92 % of control

Cc1ccc(Oc2ccc(C(=O)O)cc2)cc1
inactive: [2] 96 % of control | [3] 102 % of control | [4] 103 % of control

CC(=O)OC1C=C2CCC3C(CCC4(C)C(OC(C)=O)CCC34)C2(C)CC1 (stereo not given)
inactive: dose: 12.5 mg/kg/injection, schedule: Q01DX009 (ip), vehicle: Klucel (hydroxypropylcellulose) (HPC) 92 % of control | [5] 92 % of control | [6] 90 % of control | dose: 75.0 mg/kg/injection, schedule: Q01DX009 (ip), vehicle: Klucel (hydroxypropylcellulose) (HPC) 101 % of control | dose: 115.0 mg/kg/injection, schedule: Q01DX009 (ip), vehicle: Klucel (hydroxypropylcellulose) (HPC) 98 % of control | dose: 170.0 mg/kg/injection, schedule: Q01DX009 (ip), vehicle: Klucel (hydroxypropylcellulose) (HPC) 95 % of control

Cc1cc(N=O)c(NO)cc1C
inactive: [7] 108 % of control | [8] 103 % of control | [9] 118 % of control

COc1ccc(-c2c(O)c3cccc(-c4ccccc4)c3oc2=O)cc1
inactive: dose: 25.0 mg/kg/injection, schedule: Q04DX003 (ip), vehicle: saline with Tween-80 116 % of control | dose: 50.0 mg/kg/injection, schedule: Q04DX003 (ip), vehicle: saline with Tween-80 96 % of control | [10] 101 % of control | [11] 95 % of control | [12] 93 % of control

CN=C(N)N(C)NCc1ccccc1
inactive: [1] 100 % of control | dose: 50.0 mg/kg/injection, schedule: Q04DX003 (ip), vehicle: saline 109 % of control | [13] 97 % of control | [11] 105 % of control

COC(=O)C1(C)COP(=O)(O)OC1 (stereo not given)
inactive: [13] 91 % of control and 103 % of control | dose: 200.0 mg/kg/injection, schedule: Q01DX001 (ip), vehicle: saline 89 % of control and 100 % of control | dose: 400.0 mg/kg/injection, schedule: Q01DX001 (ip), vehicle: saline 97 % of control

N#Cc1c(NN)n(C2OC(CO)C(O)C2O)c2ncncc12 (stereo not given)
inactive: dose: 100.0 mg/kg/injection, schedule: Q01DX005 (ip), vehicle: saline 106 % of control | dose: 200.0 mg/kg/injection, schedule: Q01DX005 (ip), vehicle: saline 106 % of control

O=C(Nc1cc2ccccc2cc1C(=O)O)Nc1cccc2ccccc12
inactive: [7] 97 % of control | [8] 101 % of control | [9] 100 % of control

C=CC1(C)CCC2C(=CCC3C(C)(COC4OC(CO)C(O)C(O)C4O)C(O)CCC23C)C1 (stereo not given)
inactive: [14] 102 % of control | [15] 98 % of control

O=C(NCCO)Nc1ccc(Cl)c(Cl)c1
inactive: [7] 100 % of control | [8] 103 % of control | [3] 101 % of control | [9] 101 % of control | [4] 87 % of control

COC(=O)/C=C/C(=O)OC
inactive: dose: 25.0 mg/kg/injection, schedule: Q04DX002 (ip), vehicle: Klucel (hydroxypropylcellulose) (HPC) 97 % of control | dose: 50.0 mg/kg/injection, schedule: Q04DX002 (ip), vehicle: Klucel (hydroxypropylcellulose) (HPC) 100 % of control | [16] 103 % of control | [2] 104 % of control | [11] 101 % of control | [3] 101 % of control | [12] 107 % of control | [4] 112 % of control | [17] 103 % of control

COC(=O)C(C)CC(C)(C=O)OC (stereo not given)
inactive: [11] 93 % of control | [12] 89 % of control | [17] 89 % of control

CC(C)CCCC(C)C1CCC2C3CC(O)C45CC4CCC5(C)C3CCC12C (stereo not given)
inactive: [18] 89 % of control | [19] 92 % of control

[O-][n+]1c(Cl)cccc1Cl
inactive: dose: 15.0 mg/kg/injection, schedule: Q01DX001 (ip), vehicle: carboxymethylcellulose (CMC) 103 % of control | dose: 30.0 mg/kg/injection, schedule: Q01DX001 (ip), vehicle: carboxymethylcellulose (CMC) 112 % of control | dose: 60.0 mg/kg/injection, schedule: Q01DX001 (ip), vehicle: carboxymethylcellulose (CMC) 105 % of control

O=[N+]([O-])C1C2CCC(C2)C1[N+](=O)[O-] (stereo not given)
inactive: [14] 91 % of control | [15] 100 % of control | dose: 300.0 mg/kg/injection, schedule: Q01DX001 (ip), vehicle: saline 87 % of control

CCOC(=O)NNC(=S)Nc1cccc(C(F)(F)F)c1
inactive: dose: 100.0 mg/kg/injection, schedule: Q04DX002 (ip), vehicle: saline with Tween-80 111 % of control | dose: 200.0 mg/kg/injection, schedule: Q04DX002 (ip), vehicle: saline with Tween-80 108 % of control

CCCCC(C)(O)CCC (stereo not given)
inactive: dose: 50.0 mg/kg/injection, schedule: Q01DX001 (ip), vehicle: carboxymethylcellulose (CMC) 104 % of control | dose: 100.0 mg/kg/injection, schedule: Q01DX001 (ip), vehicle: carboxymethylcellulose (CMC) 101 % of control | dose: 200.0 mg/kg/injection, schedule: Q01DX001 (ip), vehicle: carboxymethylcellulose (CMC) 98 % of control | dose: 400.0 mg/kg/injection, schedule: Q01DX001 (ip), vehicle: carboxymethylcellulose (CMC) 89 % of control

c1ccc(-c2nccnc2-c2ccccc2)cc1
inactive: [16] 93 % of control | [18] 107 % of control | [19] 111 % of control

CC(=O)C(N=Nc1ccccc1)C(C)=O
inactive: [5] 94 % of control | [6] 92 % of control | [7] 97 % of control and 102 % of control

Cc1ccc(S(=O)(=O)N/N=C/c2ccc(Cl)s2)cc1
inactive: [20] 95 % of control | [21] 97 % of control | [22] 92 % of control

COC1/C=C/O[C@@]2(C)Oc3c(C)c(O)c4c(O)c(cc(O)c4c3C2=O)NC(=O)/C(C)=C\C=C\[C@H](C)C(O)[C@@H](C)[C@@H](O)[C@@H](C)[C@H](OC(C)=O)[C@@H]1C (stereo not given in full)
inactive: dose: 4.0 mg/kg/injection, schedule: Q03HX040 (ip), vehicle: saline 101 % of control | dose: 8.0 mg/kg/injection, schedule: Q03HX040 (ip), vehicle: saline 103 % of control | dose: 16.0 mg/kg/injection, schedule: Q03HX040 (ip), vehicle: saline 97 % of control | [20] 104 % of control | [10] 95 % of control | dose: 119.0 mg/kg/injection, schedule: Q01DX009 (ip), vehicle: saline 98 % of control | dose: 128.0 mg/kg/injection, schedule: Q03HX024 (ip), vehicle: saline 92 % of control | dose: 128.0 mg/kg/injection, schedule: Q03HX040 (ip), vehicle: saline 89 % of control | dose: 178.0 mg/kg/injection, schedule: Q01DX009 (ip), vehicle: saline 96 % of control | [21] 92 % of control | dose: 200.0 mg/kg/injection, schedule: Q04DX003 (ip), vehicle: saline with Tween-80 87 % of control | dose: 256.0 mg/kg/injection, schedule: Q03HX024 (ip), vehicle: saline 93 % of control | dose: 267.0 mg/kg/injection, schedule: Q01DX009 (ip), vehicle: saline 98 % of control | [22] 97 % of control | dose: 400.0 mg/kg/injection, schedule: Q01DX009 (ip), vehicle: saline 104 % of control | dose: 400.0 mg/kg/injection, schedule: Q04DX003 (ip), vehicle: saline with Tween-80 101 % of control | dose: 512.0 mg/kg/injection, schedule: Q03HX024 (ip), vehicle: saline 92 % of control | dose: 512.0 mg/kg/injection, schedule: Q03HX040 (ip), vehicle: saline 88 % of control | dose: 1024.0 mg/kg/injection, schedule: Q03HX024 (ip), vehicle: saline 98 % of control

Reference: PubChem BioAssay AID248 (DTP/NCI, 2004)
